According to ChEMBL document CHEMBL1141332, “Cytotoxic metabolites from an Indonesian sponge Lendenfeldia sp” (J Nat Prod, 2007):

What was measured:
Format in all cases: functional
HL-60 = experiment: Cytotoxicity against human HL60 cells; settings: Homo sapiens, HL-60
MOLT-4 = experiment: Cytotoxicity against human MOLT4 cells
RPMI-8226 = experiment: Cytotoxicity against human RPMI8226 cells
EKVX = experiment: Cytotoxicity against human EKVX cells
HOP-62 = experiment: Cytotoxicity against human HOP62 cells
NCI-H226 = experiment: Cytotoxicity against human NCI-H226 cells
NCI-H23 = experiment: Cytotoxicity against human NCI-H23 cells
NCI-H322M = experiment: Cytotoxicity against human NCI-H322M cells
NCI-H460 = experiment: Cytotoxicity against human NCI-H460 cells
NCI-H522 = experiment: Cytotoxicity against human NCI-H522 cells
LOX IMVI = experiment: Cytotoxicity against human LOX IMVI cells
COLO 205 = experiment: Cytotoxicity against human COLO205 cells
HCC 2998 = experiment: Cytotoxicity against human HCC2998 cells
HCT-116 = experiment: Cytotoxicity against human HCT116 cells
HCT-15 = experiment: Cytotoxicity against human HCT15 cells
HT-29 = experiment: Cytotoxicity against human HT29 cells
KM12 = experiment: Cytotoxicity against human KM12 cells
SF-268 = experiment: Cytotoxicity against human SF268 cells
SF-295 = experiment: Cytotoxicity against human SF295 cells
SF-539 = experiment: Cytotoxicity against human SF539 cells
SNB-19 = experiment: Cytotoxicity against human SNB19 cells; settings: read-out: Log LC50 (the source's name) (converted)
SNB-75 = experiment: Cytotoxicity against human SNB75 cells
U-251 = experiment: Cytotoxicity against human U251cells
Malme-3M = experiment: Cytotoxicity against human MALME-3M cells
M14 = experiment: Cytotoxicity against human M14 cells
SK-MEL-2 = experiment: Cytotoxicity against human SK-MEL-2 cells
SK-MEL-28 = experiment: Cytotoxicity against human SK-MEL-28 cells
SK-MEL-5 = experiment: Cytotoxicity against human SK-MEL-5 cells
UACC-257 = experiment: Cytotoxicity against human UACC257 cells
UACC-62 = experiment: Cytotoxicity against human UACC62 cells
OVCAR-5 = experiment: Cytotoxicity against human OVCAR5 cells
OVCAR-8 = experiment: Cytotoxicity against human OVCAR8 cells
SK-OV-3 = experiment: Cytotoxicity against human SK-OV-3 cells
786-0 = experiment: Cytotoxicity against human 786-0 cells
A498 = experiment: Cytotoxicity against human A498 cells
ACHN = experiment: Cytotoxicity against human ACHN cells
SN12C = experiment: Cytotoxicity against human SN12C cells
UO-31 = experiment: Cytotoxicity against human UO31 cells
PC-3 = experiment: Cytotoxicity against human PC3 cells
DU-145 = experiment: Cytotoxicity against human DU145 cells
MCF7 = experiment: Cytotoxicity against human MCF7 cells
[1] = Cytotoxicity against human HS578T cells; settings: Hs-578T
MDA-MB-435 = experiment: Cytotoxicity against human MDA-MB-435 cells
BT-549 = experiment: Cytotoxicity against human BT549 cells
T47D = experiment: Cytotoxicity against human T47D cells
[2] = read-out: Log LC50 (the source's name) (converted)

CC(=O)O[C@@H]1C[C@H]2[C@]3(C)CC[C@H]4C(C)(C)CCC[C@]4(C)[C@H]3C[C@H](O)[C@]2(C)[C@@H](C=O)[C@@H]1C(C)=O [SCALARHERBACIN A]
GI50 (HL-60): 1320 nM
CC50 (HL-60; [2]): 8510 nM
TGI (HL-60; read-out: Log TGI (converted)): 3390 nM
GI50 (MOLT-4): 324 nM
CC50 (MOLT-4; [2]): 4170 nM
TGI (MOLT-4; read-out: Log TGI (converted)): 1120 nM
GI50 (RPMI-8226): 407 nM
CC50 (RPMI-8226; [2]): 13200 nM
TGI (RPMI-8226; read-out: Log TGI (converted)): 2090 nM
GI50 (EKVX): 1320 nM
CC50 (EKVX; [2]): 5750 nM
TGI (EKVX; read-out: Log TGI (converted)): 2750 nM
GI50 (HOP-62): 1070 nM
CC50 (HOP-62; [2]): 4790 nM
TGI (HOP-62; read-out: Log TGI (converted)): 2240 nM
GI50 (NCI-H226): 1580 nM
CC50 (NCI-H226; [2]): 6760 nM
TGI (NCI-H226; read-out: Log TGI (converted)): 3240 nM
GI50 (NCI-H23): 1660 nM
CC50 (NCI-H23; [2]): 6170 nM
TGI (NCI-H23; read-out: Log TGI (converted)): 3240 nM
GI50 (NCI-H322M): 2140 nM
CC50 (NCI-H322M; [2]): 8710 nM
TGI (NCI-H322M; read-out: Log TGI (converted)): 4270 nM
GI50 (NCI-H460): 1450 nM
CC50 (NCI-H460; [2]): 6760 nM
TGI (NCI-H460; read-out: Log TGI (converted)): 3160 nM
GI50 (NCI-H522): 1860 nM
CC50 (NCI-H522; [2]): 7590 nM
TGI (NCI-H522; read-out: Log TGI (converted)): 3720 nM
GI50 (LOX IMVI): 1000 nM
CC50 (LOX IMVI; [2]): 4680 nM
TGI (LOX IMVI; read-out: Log TGI (converted)): 2140 nM
GI50 (COLO 205): 537 nM
CC50 (COLO 205; [2]): 5250 nM
TGI (COLO 205; read-out: Log TGI (converted)): 1860 nM
GI50 (HCC 2998): 1510 nM
CC50 (HCC 2998; [2]): 5620 nM
TGI (HCC 2998; read-out: Log TGI (converted)): 2950 nM
GI50 (HCT-116): 407 nM
CC50 (HCT-116; [2]): 3720 nM
TGI (HCT-116; read-out: Log TGI (converted)): 1380 nM
GI50 (HCT-15): 759 nM
CC50 (HCT-15; [2]): 4790 nM
TGI (HCT-15; read-out: Log TGI (converted)): 2040 nM
GI50 (HT-29): 309 nM
CC50 (HT-29; [2]): 3800 nM
TGI (HT-29; read-out: Log TGI (converted)): 1100 nM
GI50 (KM12): 1480 nM
CC50 (KM12; [2]): 8510 nM
TGI (KM12; read-out: Log TGI (converted)): 3550 nM
GI50 (SF-268): 1450 nM
CC50 (SF-268; [2]): 7410 nM
TGI (SF-268; read-out: Log TGI (converted)): 3240 nM
GI50 (SF-295): 1450 nM
CC50 (SF-295; [2]): 6170 nM
TGI (SF-295; read-out: Log TGI (converted)): 3020 nM
GI50 (SF-539): 417 nM
TGI (SF-539; read-out: Log TGI (converted)): 1580 nM
CC50 (SNB-19): 1660 nM
GI50 (SNB-75): 1580 nM
CC50 (SNB-75; [2]): 5500 nM
TGI (SNB-75; read-out: Log TGI (converted)): 2950 nM
GI50 (U-251): 589 nM
CC50 (U-251; [2]): 4270 nM
TGI (U-251; read-out: Log TGI (converted)): 1780 nM
GI50 (Malme-3M): 1950 nM
TGI (Malme-3M; read-out: Log TGI (converted)): 3890 nM
GI50 (M14): 1450 nM
CC50 (M14; [2]): 5370 nM
TGI (M14; read-out: Log TGI (converted)): 2750 nM
GI50 (SK-MEL-2): 2240 nM
CC50 (SK-MEL-2; [2]): 16600 nM
TGI (SK-MEL-2; read-out: Log TGI (converted)): 4790 nM
GI50 (SK-MEL-28): 389 nM
TGI (SK-MEL-28; read-out: Log TGI (converted)): 1290 nM
GI50 (SK-MEL-5): 1290 nM
CC50 (SK-MEL-5; [2]): 5250 nM
TGI (SK-MEL-5; read-out: Log TGI (converted)): 2630 nM
GI50 (UACC-257): 2190 nM
CC50 (UACC-257; [2]): 27500 nM
TGI (UACC-257; read-out: Log TGI (converted)): 5250 nM
GI50 (UACC-62): 1580 nM
CC50 (UACC-62; [2]): 5500 nM
TGI (UACC-62; read-out: Log TGI (converted)): 2950 nM
GI50 (OVCAR-5): 1320 nM
CC50 (OVCAR-5; [2]): 5130 nM
TGI (OVCAR-5; read-out: Log TGI (converted)): 2630 nM
GI50 (OVCAR-8): 676 nM
CC50 (OVCAR-8; [2]): 57500 nM
TGI (OVCAR-8; read-out: Log TGI (converted)): 3890 nM
GI50 (SK-OV-3): 2000 nM
CC50 (SK-OV-3; [2]): 8130 nM
TGI (SK-OV-3; read-out: Log TGI (converted)): 3980 nM
GI50 (786-0): 479 nM
CC50 (786-0; [2]): 4070 nM
TGI (786-0; read-out: Log TGI (converted)): 1620 nM
GI50 (A498): 1820 nM
LC50 (A498): 6760 nM
TGI (A498; read-out: Log TGI (converted)): 3470 nM
GI50 (ACHN): 457 nM
LC50 (ACHN): 3980 nM
TGI (ACHN; read-out: Log TGI (converted)): 1550 nM
GI50 (SN12C): 1350 nM
TGI (SN12C; read-out: Log TGI (converted)): 2750 nM
GI50 (UO-31): 1230 nM
TGI (UO-31; read-out: Log TGI (converted)): 2570 nM
GI50 (PC-3): 741 nM
LC50 (PC-3): 5250 nM
TGI (PC-3; read-out: Log TGI (converted)): 2140 nM
GI50 (DU-145): 1230 nM
LC50 (DU-145): 5130 nM
TGI (DU-145; read-out: Log TGI (converted)): 2510 nM
GI50 (MCF7): 1820 nM
LC50 (MCF7): 70800 nM
TGI (MCF7; read-out: Log TGI (converted)): 6170 nM
GI50 [1]: 1020 nM
LC50 [1]: 8910 nM
TGI ([1]; read-out: Log TGI (converted)): 3020 nM
GI50 (MDA-MB-435): 1450 nM
LC50 (MDA-MB-435): 6760 nM
TGI (MDA-MB-435; read-out: Log TGI (converted)): 3090 nM
GI50 (BT-549): 562 nM
LC50 (BT-549): 4370 nM
TGI (BT-549; read-out: Log TGI (converted)): 1780 nM
GI50 (T47D): 832 nM
LC50 (T47D): 25100 nM
TGI (T47D; read-out: Log TGI (converted)): 3550 nM
